# Reference: US9029337B2, “Modulation of factor 7 expression” (Isis Pharmaceuticals, Inc., priority 2007, dated 2015)
# Strand notation (5' to 3'): a small letter for the sugar, then the base; units joined by * are phosphorothioate-linked, units joined directly phosphodiester-linked; [ ] holds rarer units or linkages, { } end groups; capitals alone tell only the bases. e = 2'-O-(2-methoxyethyl) (MOE); [5mC] = 5-methylcytosine; d = 2'-deoxy (DNA)
# Columns and labels:
# Format in all cases: cell-based
# [1] = tested on: human Factor 7 mRNA; test: Antisense inhibition of human Factor 7 with short (14-mer) oligonucleotides in HepB3 cells, electroporation 1,000 nM; settings: electroporation, 1,000 nM antisense oligonucleotide, approximately 24 hours, Factor 7 mRNA relative to untreated control cells
# Excerpt: Short antisense oligonucleotides (shortmers) were designed to target a Factor 7 nucleic acid. The shortmers in Table 17 were designed as 2-10-2 MOE gapmers. The gapmers are 14 nucleotides in length, wherein the central gap segment is comprised of 10 2′-deoxynucleotides and is flanked on both sides (in the 5′ and 3′ directions) by wings comprising 2 nucleotides each. Each nucleotide in the 5′ wing segment and each nucleotide in the 3′ wing segment has a 2′-MOE modification. The internucleoside linkages throughout each gapmer are phosphorothioate (P═S) linkages. All cytidine residues throughout each gapmer are 5-methylcytidines.
# Shortmers were evaluated for their ability to reduce human Factor 7 mRNA in HepB3 cells and compared with one 5-10-5 chimeric oligonucleotide from Table 16, ISIS 407939. HepB3 cells at a density of 20,000 cells per well in a 96-well plate were transfected using electroporation with 1,000 nM of antisense oligonucleotide. After a treatment period of approximately 24 hours, RNA was isolated from the cells and Factor 7 mRNA levels were measured by real-time RT-PCR, as described herein. Factor 7 mRNA levels were adjusted according to total RNA content as measured by RIBOGREEN®. Results are presented in Table 17 as percent inhibition of Factor 7 mRNA, relative to untreated control cells. ISIS 407939 is the first oligonucleotide in Table 17 to which the shortmers were compared, and is marked by an asterisk (*).
# [2] = tested on: human Factor 7 mRNA; test: Antisense inhibition of human Factor 7 mRNA in HepB3 cells, 50 nM antisense oligonucleotide, lipofectin; settings: for % Inhibition: lipofectin, approximately 24 hours
# Method in brief: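 4,000 cells/well; ~24 h exposure; RNA isolated; probe set RTS 2927; normalised to RIBOGREEN® total RNA; % inhibition vs untreated.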
# [3] = tested on: human Factor 7 mRNA; test: Dose-dependent antisense inhibition of human Factor 7 in HepB3 cells, lipofectin; settings: approximately 16 hours
# Protocol: Cells were plated at a density of 4,000 cells per well and treated with lipofectin reagent with 3.125 nM, 6.25 nM, 12.5 nM, 25 nM, 50 nM, and 100 nM concentrations of antisense oligonucleotide, as indicated in Table 3. After a treatment period of approximately 16 hours, RNA was isolated from the cells and Factor 7 mRNA levels were measured by real-time RT-PCR, as described herein. Human Factor 7 primer probe set RTS 2927 (forward sequence: […], incorporated herein as SEQ ID NO: 164; reverse sequence: […], incorporated herein as SEQ ID NO: 165; probe sequence: TGGGTGGTCTCCGCGGCCX, incorporated herein as SEQ ID NO: 166) was used to measure mRNA levels. Factor 7 mRNA levels were adjusted according to total RNA content as measured by RIBOGREEN®. Results are presented as percent inhibition of Factor 7, relative to untreated control cells.
# Cells were plated at a density of 4,000 cells per well and transfected using lipofectin reagent with 6.25 nM, 12.5 nM, 25.0 nM, 50.0 nM, and 100.0 nM concentrations of antisense oligonucleotide, as indicated in Table 7. After a treatment period of approximately 16 hours, RNA was isolated from the cells and Factor 7 mRNA levels were measured by real-time RT-PCR, as described herein. Human Factor 7 primer probe set RTS 2927 was used to measure mRNA levels. Factor 7 mRNA levels were adjusted according to total RNA content as measured by RIBOGREEN®. Results are presented as percent inhibition of Factor 7, relative to untreated control cells.
# Cells were plated at a density of 4,000 cells per well and transfected using lipofectin reagent with 3.125 nM, 6.25 nM, 12.5 nM, 25 nM, 50 nM, and 100 nM concentrations of antisense oligonucleotide, as specified in Table 14. After a treatment period of approximately 16 hours, RNA was isolated from the cells and Factor 7 mRNA levels were measured by quantitative real-time PCR. Human Factor 7 primer probe set RTS 2927 was used to measure mRNA levels. Factor 7 mRNA levels were adjusted according to total RNA content, as measured by RIBOGREEN®. Results are presented as percent inhibition of Factor 7, relative to untreated control cells.
# [4] = 50 nM antisense oligonucleotide, Factor 7 mRNA by real-time RT-PCR (RTS 2927), relative to untreated control
# [5] = Table 1, 50 nM, relative to untreated control cells
substance,measurement,setting,value
435687 (antisense eA*eT*dG*dG*dT*d[5mC]*dA*dG*dT*dG*dA*dG*eG*eA) [compound 435687],% Inhibition,[1],7%
435654 (antisense eG*e[5mC]*d[5mC]*dG*dT*dT*d[5mC]*dT*d[5mC]*dG*dT*dT*e[5mC]*eA) [compound 435654],% Inhibition,[1],71%
435778 (antisense eG*e[5mC]*dT*dA*d[5mC]*dT*dG*dG*dG*d[5mC]*d[5mC]*dA*e[5mC]*eG) [compound 435778],% Inhibition,[1],49%
435763 (antisense eA*eG*dG*dA*dG*dA*dA*dA*dG*dG*dT*d[5mC]*eA*eG) [compound 435763],% Inhibition,[1],2%
435637 (antisense eT*eG*dA*dA*dG*d[5mC]*d[5mC]*d[5mC]*dA*dA*dG*d[5mC]*eA*eG) [compound 435637],% Inhibition,[1],11%
435769 (antisense eT*eT*d[5mC]*dT*dT*dT*dG*dA*dA*dA*dA*dA*eT*eA) [compound 435769],% Inhibition,[1],0%
435674 (antisense eA*eA*dA*d[5mC]*dA*dG*dT*dG*dG*dG*d[5mC]*d[5mC]*eG*e[5mC]) [compound 435674],% Inhibition,[1],34%
435787 (antisense eG*eA*dG*dT*dG*dT*dG*dA*dG*dG*d[5mC]*dT*eT*e[5mC]) [compound 435787],% Inhibition,[1],34%
435834 (antisense eT*eG*dA*d[5mC]*dA*dG*d[5mC]*dA*d[5mC]*dG*dA*dA*eG*e[5mC]) [compound 435834],% Inhibition,[1],20%
435484 (antisense e[5mC]*e[5mC]*dT*dG*dG*dG*dT*d[5mC]*dA*dT*d[5mC]*dA*eG*e[5mC]) [compound 435484],% Inhibition,[1],45%
435837 (antisense e[5mC]*eT*d[5mC]*dG*d[5mC]*d[5mC]*dT*dG*dG*dA*dA*dG*eG*eA) [compound 435837],% Inhibition,[1],37%
435683 (antisense eA*eT*dG*dT*d[5mC]*dG*dT*dG*dG*dT*dT*dG*eG*eT) [compound 435683],% Inhibition,[1],3%
435502 (antisense eG*eT*dA*d[5mC]*dT*dG*dG*dG*dA*dG*dA*d[5mC]*e[5mC]*e[5mC]) [compound 435502],% Inhibition,[1],69%
435794 (antisense eG*eA*dG*dG*dT*dA*d[5mC]*dA*d[5mC]*dA*dG*dG*e[5mC]*eT) [compound 435794],% Inhibition,[1],26%
435761 (antisense e[5mC]*eA*dG*dA*dT*dG*dA*dA*dA*dA*d[5mC]*dT*eT*eG) [compound 435761],% Inhibition,[1],5%
435804 (antisense e[5mC]*eA*dG*dG*dG*dA*d[5mC]*dT*d[5mC]*dT*d[5mC]*dA*eG*e[5mC]) [compound 435804],% Inhibition,[1],26%
435819 (antisense eT*eT*dT*dG*dT*d[5mC]*d[5mC]*dA*dG*dT*dA*dA*eG*eA) [compound 435819],% Inhibition,[1],1%
435789 (antisense e[5mC]*eA*dT*dG*dT*dT*dA*dG*d[5mC]*d[5mC]*dT*dT*eT*eG) [compound 435789],% Inhibition,[1],3%
416472 (antisense e[5mC]*eA*eG*e[5mC]*e[5mC]*dT*dT*dG*dG*d[5mC]*dT*dT*dT*d[5mC]*dT*e[5mC]*eT*e[5mC]*e[5mC]*eA) [compound 416472],% Inhibition,[2]; [4],76%
same,percent inhibition of Factor 7,"[3]; Table 7, 6.25 nM",16%
same,percent inhibition of Factor 7,"[3]; Table 7, 12.5 nM",44%
same,percent inhibition of Factor 7,"[3]; Table 7, 25.0 nM",64%
same,percent inhibition of Factor 7,"[3]; Table 7, 50.0 nM",80%
same,percent inhibition of Factor 7,"[3]; Table 7, 100.0 nM",88%
407910 (antisense eA*eG*eT*e[5mC]*e[5mC]*dT*dT*dG*d[5mC]*dT*dG*d[5mC]*d[5mC]*dA*dT*e[5mC]*e[5mC]*eG*eA*eG) [compound 407910],% Inhibition,[2]; [5],86%
same,% Inhibition,[2]; [4],72%
same,percent inhibition of Factor 7,"[3]; Table 3, 3.125 nM",31%
same,percent inhibition of Factor 7,"[3]; Table 3, 6.25 nM",44%
same,percent inhibition of Factor 7,"[3]; Table 3, 12.5 nM",69%
same,percent inhibition of Factor 7,"[3]; Table 3, 25.0 nM",68%
same,percent inhibition of Factor 7,"[3]; Table 3, 50.0 nM",82%
same,percent inhibition of Factor 7,"[3]; Table 3, 100.0 nM",89%
416507 (antisense eG*eG*eT*eT*eA*d[5mC]*dT*dG*dA*dG*d[5mC]*dG*d[5mC]*dG*dG*eA*eA*eG*eA*eA) [compound 416507],% Inhibition,[2]; [4],73%
same,percent inhibition of Factor 7,"[3]; Table 7, 6.25 nM",30%
same,percent inhibition of Factor 7,"[3]; Table 7, 12.5 nM",53%
same,percent inhibition of Factor 7,"[3]; Table 7, 25.0 nM",70%
same,percent inhibition of Factor 7,"[3]; Table 7, 50.0 nM",77%
same,percent inhibition of Factor 7,"[3]; Table 7, 100.0 nM",72%
416508 (antisense e[5mC]*eG*eA*eG*eT*dT*d[5mC]*dT*dG*d[5mC]*dA*dG*dG*dA*dG*e[5mC]*eG*eG*e[5mC]*e[5mC]) [compound 416508],% Inhibition of human Factor 7 mRNA levels,"[2]; gapmers targeted to nucleobases 4868 to 4899 of SEQ ID NO: 1, Table 8",67%
same,% Inhibition,[2]; [4],67%
same,percent inhibition of Factor 7,"[3]; Table 7, 6.25 nM",42%
same,percent inhibition of Factor 7,"[3]; Table 7, 12.5 nM",51%
same,percent inhibition of Factor 7,"[3]; Table 7, 25.0 nM",71%
same,percent inhibition of Factor 7,"[3]; Table 7, 50.0 nM",79%
same,percent inhibition of Factor 7,"[3]; Table 7, 100.0 nM",89%
407900 (antisense e[5mC]*e[5mC]*e[5mC]*e[5mC]*eA*d[5mC]*dA*dA*dT*dT*d[5mC]*dG*dG*d[5mC]*d[5mC]*eT*eT*eG*eG*eG) [compound 407900],% Inhibition,[2]; [5],91%
same,% Inhibition,[2]; [4],78%
same,percent inhibition of Factor 7,"[3]; Table 3, 3.125 nM",52%
same,percent inhibition of Factor 7,"[3]; Table 3, 6.25 nM",58%
same,percent inhibition of Factor 7,"[3]; Table 3, 12.5 nM",80%
same,percent inhibition of Factor 7,"[3]; Table 3, 25.0 nM",87%
same,percent inhibition of Factor 7,"[3]; Table 3, 50.0 nM",94%
same,percent inhibition of Factor 7,"[3]; Table 3, 100.0 nM",91%
same,percent inhibition of Factor 7,"[3]; Table 7, 6.25 nM",18%
same,percent inhibition of Factor 7,"[3]; Table 7, 12.5 nM",36%
same,percent inhibition of Factor 7,"[3]; Table 7, 25.0 nM",61%
same,percent inhibition of Factor 7,"[3]; Table 7, 50.0 nM",82%
same,percent inhibition of Factor 7,"[3]; Table 7, 100.0 nM",91%
407606 (antisense e[5mC]*eT*eG*eG*eT*d[5mC]*d[5mC]*dT*dT*dG*d[5mC]*dA*dG*dG*dA*eG*e[5mC]*e[5mC]*e[5mC]*e[5mC]) [compound 407606],% Inhibition,[2]; [5],89%
same,% Inhibition,[2]; [4],57%
same,percent inhibition of Factor 7,"[3]; Table 3, 3.125 nM",20%
same,percent inhibition of Factor 7,"[3]; Table 3, 6.25 nM",0%
same,percent inhibition of Factor 7,"[3]; Table 3, 12.5 nM",49%
same,percent inhibition of Factor 7,"[3]; Table 3, 25.0 nM",55%
same,percent inhibition of Factor 7,"[3]; Table 3, 50.0 nM",83%
same,percent inhibition of Factor 7,"[3]; Table 3, 100.0 nM",84%
